# Data published in patent publication US7166738B2, “Non-nucleoside reverse transcriptase inhibitors” (Roche Palo Alto LLC, priority 2004, dated 2007).
row,Structure (SMILES),melting point [°C]
1,CCC(=O)NS(=O)(=O)c1ccc(NC(=O)Cc2ccc(Cl)c(Oc3cc(Cl)cc(C#N)c3)c2F)c(Cl)c1.[Na],155.4 to 157.5
2,Cl.N#Cc1cc(Cl)cc(Oc2c(Cl)ccc(CC(=O)Nc3ccc(S(=O)(=O)NC(=O)CCN)cc3Cl)c2F)c1,199.3 to 199.6
3,COCC(=O)NS(=O)(=O)c1ccc(NC(=O)Cc2ccc(Cl)c(Oc3cc(Cl)cc(C#N)c3)c2F)c(Cl)c1.[Na],151.7 to 152.3
4,N#Cc1cc(Cl)cc(Oc2c(Cl)ccc(CC(=O)Nc3ccc(S(=O)(=O)NC(=O)CO)cc3Cl)c2F)c1.[Na],178 to 179.5
5,Cc1cc(C(=O)CN2CCOCC2)ccc1NC(=O)Cc1ccc(C)c(Oc2cc(Cl)cc(C#N)c2)c1.O=C(O)C(F)(F)F,110.3 to 110.5
6,COCCC(=O)NS(=O)(=O)c1ccc(NC(=O)Cc2ccc(Cl)c(Oc3cc(Cl)cc(C#N)c3)c2F)c(Cl)c1.[Na],133.1 to 140.7
7,CCCCC(=O)NS(=O)(=O)c1ccc(NC(=O)Cc2ccc(Cl)c(Oc3cc(Cl)cc(C#N)c3)c2F)c(Cl)c1.[Na],157.6 to 159.2
8,CC(C)CC(=O)NS(=O)(=O)c1ccc(NC(=O)Cc2ccc(Cl)c(Oc3cc(Cl)cc(C#N)c3)c2F)c(Cl)c1.[Na],159.3 to 163.4
9,CCN(CC)CC(=O)NS(=O)(=O)c1ccc(NC(=O)Cc2ccc(Cl)c(Oc3cc(Cl)cc(C#N)c3)c2F)c(Cl)c1.Cl,195.3 to 197.2
10,CC(C)CCC(=O)NS(=O)(=O)c1ccc(NC(=O)Cc2ccc(Cl)c(Oc3cc(Cl)cc(C#N)c3)c2F)c(Cl)c1.[Na],195.6 to 197
11,Cl.N#Cc1cc(Cl)cc(Oc2c(Cl)ccc(CC(=O)Nc3ccc(S(=O)(=O)NC(=O)CN4CCOCC4)cc3Cl)c2F)c1,223.3 to 225
12,CCC(=O)NS(=O)(=O)c1ccc(NC(=O)Cc2ccc(C)c(Oc3cc(Cl)cc(C#N)c3)c2F)c(Cl)c1.[Na],158.8 to 162
13,Cc1cc(S(=O)(=O)NC(=O)[C@@H](N)C(C)C)ccc1NC(=O)Cc1ccc(Cl)c(Oc2cc(Cl)cc(C#N)c2)c1F.Cl,169 to 180.3
14,Cc1cc(S(=O)(=O)NC(=O)c2cccnc2)ccc1NC(=O)Cc1ccc(Cl)c(Oc2cc(Cl)cc(C#N)c2)c1F.Cl,261.8 to 263.6
15,"N#Cc1cc(Cl)cc(Oc2cc(CC(=O)Nc3ccc(S(N)(=O)=O)cc3)ccc2Cl)c1 [Compound I-1, 2-[4-Chloro-3-(3-chloro-5-cyano-phenoxy)-phenyl]-N-(4-sulfamoyl-phenyl)-acetamide]",210.5 to 214
16,"N#Cc1cc(C#N)cc(Oc2cc(CC(=O)Nc3ccc(S(N)(=O)=O)cc3)ccc2Cl)c1 [Compound I-2, 2-[4-Chloro-3-(3,5-dicyano-phenoxy)-phenyl]-N-(4-sulfamoyl-phenyl)-acetamide]",218 to 219
17,"Cc1cc(OCCCS(N)(=O)=O)ccc1NC(=O)Cc1ccc(Cl)c(Oc2cc(Cl)ccc2Br)c1 [Compound I-3, 2-[3-(2-Bromo-5-chloro-phenoxy)-4-chloro-phenyl]-N-[2-methyl-4-(3-sulfamoyl-propoxy)-phenyl]-acetamide]",190.1 to 192.2
18,"NS(=O)(=O)c1ccc(NC(=O)Cc2ccc(Cl)c(Oc3cc(Cl)ccc3Br)c2)cc1 [Compound I-4, 2-[3-(2-Bromo-5-chloro-phenoxy)-4-chloro-phenyl]-N-(4-sulfamoyl-phenyl)-acetamide]",260.1 to 261.9
19,"N#Cc1cc(C#N)cc(Oc2c(Cl)ccc(CC(=O)Nc3ccc(S(N)(=O)=O)cc3)c2F)c1 [Compound I-9, 2-[4-Chloro-3-(3,5-dicyano-phenoxy)-2-fluoro-phenyl]-N-(4-sulfamoyl-phenyl)-acetamide]",135.7 to 138.1
20,"NS(=O)(=O)c1ccc(NC(=O)Cc2ccc(Cl)c(Oc3cc(Cl)cc(Cl)c3Cl)c2F)cc1 [Compound I-10, 2-[4-Chloro-2-fluoro-3-(2,3,5-trichloro-phenoxy)-phenyl]-N-(4-sulfamoyl-phenyl)-acetamide]",247 to 249
21,"Cc1ccc(CC(=O)Nc2ccc(S(N)(=O)=O)cc2)cc1Oc1cc(F)cc(C#N)c1 [Compound I-11, 2-[3-(3-Cyano-5-fluoro-phenoxy)-4-methyl-phenyl]-N-(4-sulfamoyl-phenyl)-acetamide]",165.8 to 168.1
22,"Cc1ccc(CC(=O)Nc2ccccc2Cl)cc1Oc1cc(F)cc(C#N)c1 [Compound I-12, N-(2-Chloro-phenyl)-2-[3-(3-cyano-5-fluoro-phenoxy)-4-methyl-phenyl]-acetamide]",131.1 to 132.2

row,Structure (SMILES),melting point [°C]
1,"N#Cc1cc(Oc2c(Cl)ccc(CC(=O)Nc3ccc(S(N)(=O)=O)cc3)c2F)cc(C(F)F)c1 [Compound I-13, 2-[4-Chloro-3-(3-cyano-5-difluoromethyl-phenoxy)-2-fluoro-phenyl]-N-(4-sulfamoyl-phenyl)-acetamide]",214 to 218
2,"N#Cc1cc(Oc2c(Cl)ccc(CC(=O)Nc3ccccc3Cl)c2F)cc(C(F)F)c1 [Compound I-14, 2-[4-Chloro-3-(3-cyano-5-difluoromethyl-phenoxy)-2-fluoro-phenyl]-N-(2-chloro-phenyl)-acetamide]",169.5 to 171
3,"CCc1ccc(CC(=O)Nc2ccc(S(N)(=O)=O)cc2)cc1Oc1cc(Cl)ccc1Br [Compound I-15, 2-[3-(2-Bromo-5-chloro-phenoxy)-4-ethyl-phenyl]-N-(4-sulfamoyl-phenyl)-acetamide]",193.7 to 195.9
4,"CCc1ccc(CC(=O)Nc2ccccc2Cl)cc1Oc1cc(Cl)ccc1Br [Compound I-16, 2-[3-(2-Bromo-5-chloro-phenoxy)-4-ethyl-phenyl]-N-(2-chloro-phenyl)-acetamide]",154 to 155.5
5,"CCc1ccc(CC(=O)Nc2ccc(S(N)(=O)=O)cc2)cc1Oc1cc(Cl)ccc1C#N [Compound I-17, 2-[3-(5-Chloro-2-cyano-phenoxy)-4-ethyl-phenyl]-N-(4-sulfamoyl-phenyl)-acetamide]",198.1 to 202.6
6,"CCc1ccc(CC(=O)Nc2ccccc2Cl)cc1Oc1cc(Cl)ccc1C#N [Compound I-18, 2-[3-(5-Chloro-2-cyano-phenoxy)-4-ethyl-phenyl]-N-(2-chloro-phenyl)-acetamide]",168 to 169.9
7,"CCc1ccc(CC(=O)Nc2ccc(S(N)(=O)=O)cc2)cc1Oc1cc(Cl)ccc1Cl [Compound I-19, 2-[3-(2,5-Dichloro-phenoxy)-4-ethyl-phenyl]-N-(4-sulfamoyl-phenyl)-acetamide]",190 to 193.4
8,"CCc1ccc(CC(=O)Nc2ccc(S(N)(=O)=O)cc2)cc1Oc1c(Cl)cccc1Cl [Compound I-20, 2-[3-(2,6-Dichloro-phenoxy)-4-ethyl-phenyl]-N-(4-sulfamoyl-phenyl)-acetamide]",222.5 to 225
9,"CCc1ccc(CC(=O)Nc2ccccc2Cl)cc1Oc1cc(Cl)ccc1Cl [Compound I-21, N-(2-Chloro-phenyl)-2-[3-(2,5-dichloro-phenoxy)-4-ethyl-phenyl]-acetamide]",146.3 to 147.1
10,"CCc1ccc(CC(=O)Nc2ccc(S(N)(=O)=O)cc2)cc1Oc1cc(Cl)cc(Br)c1 [Compound I-22, 2-[3-(3-Bromo-5-chloro-phenoxy)-4-ethyl-phenyl]-N-(4-sulfamoyl-phenyl)-acetamide]",216.1 to 221.3
11,"CCc1ccc(CC(=O)Nc2ccccc2Cl)cc1Oc1c(Cl)cccc1Cl [Compound I-23, N-(2-Chloro-phenyl)-2-[3-(2,6-dichloro-phenoxy)-4-ethyl-phenyl]-acetamide]",107 to 110.5
12,"CCc1ccc(CC(=O)Nc2ccccc2Cl)cc1Oc1cc(Cl)cc(Br)c1 [Compound I-24, 2-[3-(3-Bromo-5-chloro-phenoxy)-4-ethyl-phenyl]-N-(2-chloro-phenyl)-acetamide]",119.9 to 122.2
13,"CC(C)c1ccc(CC(=O)Nc2ccc(S(N)(=O)=O)cc2)cc1Oc1cc(Cl)ccc1Br [Compound I-26, 2-[3-(2-Bromo-5-chloro-phenoxy)-4-isopropyl-phenyl]-N-(4-sulfamoyl-phenyl)-acetamide]",204.1 to 206.7
14,"CC(C)c1ccc(CC(=O)Nc2ccccc2Cl)cc1Oc1cc(Cl)ccc1Br [Compound I-27, 2-[3-(2-Bromo-5-chloro-phenoxy)-4-isopropyl-phenyl]-N-(2-chloro-phenyl)-acetamide]",142.9 to 143.6
15,"N#Cc1cc(C#N)cc(Oc2c(Cl)ccc(CC(=O)Nc3ccccc3Cl)c2F)c1 [Compound I-28, 2-[4-Chloro-3-(3,5-dicyano-phenoxy)-2-fluoro-phenyl]-N-(2-chloro-phenyl)-acetamide]",182.6 to 196.5
16,"Cc1ccc(CC(=O)Nc2ccc(S(N)(=O)=O)cc2)cc1Oc1cc(Cl)ccc1Br [Compound I-30, 2-[3-(2-Bromo-5-chloro-phenoxy)-4-methyl-phenyl]-N-(4-sulfamoyl-phenyl)-acetamide]",236.9 to 239.3
17,"Cc1cc(S(N)(=O)=O)ccc1NC(=O)Cc1ccc(C)c(Oc2cc(Cl)ccc2Br)c1 [Compound I-31, 2-[3-(2-Bromo-5-chloro-phenoxy)-4-methyl-phenyl]-N-(2-methyl-4-sulfamoyl-phenyl)-acetamide]",200.5 to 203.5
18,"Cc1cc(S(N)(=O)=O)ccc1NC(=O)Cc1ccc(Cl)c(Oc2cc(C#N)cc(C#N)c2)c1F [Compound I-32, 2-[4-Chloro-3-(3,5-dicyano-phenoxy)-2-fluoro-phenyl]-N-(2-methyl-4-sulfamoyl-phenyl)-acetamide]",248.4 to 250.8
19,"Cc1ccc(CC(=O)Nc2ccccc2Cl)cc1Oc1cc(Cl)ccc1Br [Compound I-33, 2-[3-(2-Bromo-5-chloro-phenoxy)-4-methyl-phenyl]-N-(2-chloro-phenyl)-acetamide]",133.9 to 135.9
20,"Cc1ccc(CC(=O)Nc2ccccc2Cl)cc1Oc1cc(C#N)cc(C#N)c1 [Compound I-34, N-(2-Chloro-phenyl)-2-[3-(3,5-dicyano-phenoxy)-4-methyl-phenyl]-acetamide]",175.1 to 177.5
21,"CCc1ccc(CC(=O)Nc2ccc(S(N)(=O)=O)cc2)cc1Oc1cc(Cl)cc(Br)c1Cl [Compound I-35, 2-[3-(3-Bromo-2,5-dichloro-phenoxy)-4-ethyl-phenyl]-N-(4-sulfamoyl-phenyl)-acetamide]",206.9 to 209.9
